System: bentgrass
Assay: Seed treatment of bentgrass: ground coverage by emerged plants (safener action)
Assay type: in vivo
Description: Seeds were treated with the two active compounds individually or with mixtures of both active compounds, and the development of the plants was then observed. When the mixtures were used, the negative effects of one or both mixing partners in the case of individual application were, if at all, observed at a reduced level.
Seeds of bentgrass were seed-treated with the products and concentrations listed. Triticonazol and Pyraclostrobin were used as 200 g/l FS-formulation.
Treated sees were planted at the day of treatment and then kept under humid conditions in the greenhouse. 9 days after plating the ground coverage by emerged plants were estimated in percentage.

Which “% covered ground” value (10 g a.i./100 kg seed of each active compound (200 g/l FS-formulation), greenhouse, humid conditions, ground coverage by emerged plants estimated 9 days after planting, untreated 8.5%) does the source give for `COC(=O)N(OC)c1ccccc1COc1ccn(-c2ccc(Cl)cc2)n1` [Pyraclostrobin, pyraclostrobin] here?
Its value is 13.3%.

What about the “safener action: negative effect of triticonazole on plant development” value (mixture versus individual application) of the same compound?
The value was “negative effect of TTZ can be compensated”.

— patent US8916597B2, “Use of pyraclostrobin as safener for triticonazole for controlling harmful fungi” (BASF SE, priority 2005, dated 2014)
